Assay results taken from paper PMC3958746 (FEBS Open Bio, 2014).

Molecular target: core histone octamer (Homo sapiens, UniProt P0C0S8+P62805+P62807+P68431)
Experiment: intrinsic histone fluorescence quenching titration
Type: binding

Question: Which Kd does the source give for `CC[n+]1c(-c2ccccc2)c2cc(N)ccc2c2ccc(N)cc21` [EB, ethidium bromide] here?
Answer: The Kd was 7.7 ± 0.1 µM.
